Reference: publication PMC3615411 (Cancer research, 2008)

Molecular target: E2F4 (Mus musculus, UniProt Q8R0K9)
Experiment: EMSA of E2F4 DNA binding with compound added to cell extract
Format: biochemical
Conditions: NIH-3T3 protein extract; 20 µM screen; STAT3 EMSA as negative control

E2F4, sequence (Q8R0K9 2-410): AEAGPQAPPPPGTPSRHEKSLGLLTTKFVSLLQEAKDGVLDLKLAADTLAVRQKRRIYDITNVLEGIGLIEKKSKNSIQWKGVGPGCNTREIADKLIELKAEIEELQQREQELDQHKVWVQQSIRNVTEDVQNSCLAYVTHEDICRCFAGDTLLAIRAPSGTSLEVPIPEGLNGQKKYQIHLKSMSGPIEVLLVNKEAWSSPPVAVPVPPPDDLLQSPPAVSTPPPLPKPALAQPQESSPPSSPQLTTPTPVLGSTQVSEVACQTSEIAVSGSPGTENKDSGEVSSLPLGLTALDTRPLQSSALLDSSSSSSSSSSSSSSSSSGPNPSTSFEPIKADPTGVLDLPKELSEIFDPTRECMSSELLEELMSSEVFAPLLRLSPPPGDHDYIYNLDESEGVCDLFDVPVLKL

Question: For CCOc1ccc(C(Nc2ccccn2)c2ccc3ccc(C)nc3c2O)cc1C (stereo not shown) [HLM006474], which “inhibition at 20 μM” value is on record?
Answer: Incubation of these compounds with NIH-3T3 protein extracts identified ten compounds with potential E2F4-inhibitory activity
